Measurements taken from US20170360073A1, “OPTIMIZED NUTRIENT FATTY ACID COMPOSITION” (priority 2014, published 2017).

Test system: patients with menopausal symptoms
Test: Case study: menopausal symptoms, transdermal estriol in oil (Example 15)
Format: in vivo, human
Settings: after 15 and 30 days; one patient each: estriol 1 mg oral tablet daily; example 7 oil 0.5 ml twice daily on skin (0.25 mg estriol daily); oral multivitamin and minerals tablet
Description: Three patients with menopausal symptoms were taken for study. The patients were divided into three groups. First patient was advised to take orally estriol one mg as tablet daily. Second patient was advised to apply over skin of thighs and abdomen 0.5 ml twice daily medicated optimized nutrient oil prepared by a process as given in example-7 which contains 0.25 mg estriol/ml, so that 0.25 mg estriol is absorbed daily by the body through skin. Third patient was given oral multivitamin and minerals as tablet.

Compound: C[C@]12CC[C@@H]3c4ccc(O)cc4CC[C@H]3[C@@H]1C[C@@H](O)[C@@H]2O [estriol]
- hot flushes, mood changes and sleep pattern: improvement in all the three symptoms
